Reference: paper PMC8913295, “Cryo-EM structure of hexameric yeast Lon protease (PIM1) highlights the importance of conserved structural elements” (The Journal of Biological Chemistry, 2022)

T1: PIM1 (yeast Lon protease) (Saccharomyces cerevisiae, UniProt P36775)
T1 construct: 109 kDa; hexamer; residues 529-1133 resolved
T1 sequence (P36775 182-1133): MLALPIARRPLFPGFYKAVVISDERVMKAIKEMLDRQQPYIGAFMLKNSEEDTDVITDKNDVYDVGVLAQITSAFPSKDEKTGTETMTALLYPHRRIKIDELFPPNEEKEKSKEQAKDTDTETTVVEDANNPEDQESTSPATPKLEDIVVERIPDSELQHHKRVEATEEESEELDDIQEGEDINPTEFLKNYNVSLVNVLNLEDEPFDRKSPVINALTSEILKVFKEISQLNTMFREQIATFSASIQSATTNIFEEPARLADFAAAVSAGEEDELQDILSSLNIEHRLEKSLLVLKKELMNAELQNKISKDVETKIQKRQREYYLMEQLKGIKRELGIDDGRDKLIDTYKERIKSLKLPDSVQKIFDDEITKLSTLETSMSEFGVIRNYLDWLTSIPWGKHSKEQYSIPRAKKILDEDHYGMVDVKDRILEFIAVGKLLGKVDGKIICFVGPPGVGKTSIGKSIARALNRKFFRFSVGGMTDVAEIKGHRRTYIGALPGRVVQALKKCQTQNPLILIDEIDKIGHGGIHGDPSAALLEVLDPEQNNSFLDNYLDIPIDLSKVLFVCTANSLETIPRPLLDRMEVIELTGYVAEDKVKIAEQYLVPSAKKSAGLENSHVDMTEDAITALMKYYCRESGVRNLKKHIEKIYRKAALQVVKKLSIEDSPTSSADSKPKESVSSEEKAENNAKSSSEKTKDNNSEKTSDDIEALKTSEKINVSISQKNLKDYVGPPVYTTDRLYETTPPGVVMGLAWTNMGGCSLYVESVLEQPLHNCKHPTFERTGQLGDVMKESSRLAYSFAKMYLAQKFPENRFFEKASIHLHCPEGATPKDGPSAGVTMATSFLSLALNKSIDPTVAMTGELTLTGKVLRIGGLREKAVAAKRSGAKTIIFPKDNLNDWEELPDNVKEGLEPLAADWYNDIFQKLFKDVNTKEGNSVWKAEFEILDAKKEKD

B1: mature WT S. cerevisiae PIM1 lacking the mitochondrial targeting sequence (yeast Lon protease) (enzyme, UniProt P36775 182-1133, looked up)
chain: T1 sequence (P36775 182-1133)
notes: residues 529-1133 modelled in the structure; also called WT PIM1; source: E. coli BL21 (DE3) Codon Plus RIPL, purified (Ni-NTA, Superose 6 SEC)

Experiments:
[1] = molecular target: T1, PIM1 (yeast Lon protease); assay: cryo-EM structure ([…] Å); assay type: binding; settings: two seam subunits (ADP1-2) without gamma-phosphate density; no ADP added, 1 mM ATPγS in sample
[2] = molecular target: the molecule itself; assay: cryo-EM structure; WT PIM1 (3 mg/ml) after size-exclusion chromatography, incubated with 1 mM ATPγS on ice for 20 min, plunge-frozen; reconstruction at ~3.2 Å

Molecule | cryo-EM structure (3.2 Å) [1] | stoichiometry N [2]
Nc1ncnc2c1ncn2[C@@H]1O[C@H](COP(=O)(O)OP(=O)(O)O)[C@@H](O)[C@H]1O [ADP] | do not contain density for a γ-phosphate and are named ADP1 and ADP2 | –
B1 | – | 6
